Results as given in patent US11707557B2, “Compositions and devices incorporating water-insoluble therapeutic agents and methods of the use thereof” (COOK MEDICAL TECHNOLOGIES LLC, priority 2014, dated 2023).

Columns and labels:
[1] = test system: mdck-mdr cells; experiment: Uptake of paclitaxel into drug resistant mdck-mdr cells with or without EGCG; assay type: cell-based, canine
[2] = test system: pig bladder tissue; experiment: Uptake of docetaxel or paclitaxel into pig bladder tissue from EGCG or tannic acid solutions (Franz cells); assay type: in vitro ADME; settings: drug 200 microg/ml in EGCG or tannic acid at 50 mg/ml, urothelial side, 2 hours
Experimental: Methods: Fresh ex vivo pig bladders were cut into 2 cm diameter pieces and laid on franz diffusions cells. […] The solutions were then made up in tyrodes buffer pH 7.4 and 400 ul was placed on the urothelial side of the tissue for 2 hours. The tissues were then frozen and cryosectioned for radioactivity counting by liquid scintillation methods.

[3] = test system: pig bladder tissue; experiment: Uptake of paclitaxel into pig bladder tissue from methoxypolyethylene glycol pastes with EGCG or tannic acid; assay type: in vitro ADME; settings: MEPEG paste with EGCG or tannic acid, 5% drug, urothelial or perivascular side, 2 hours
Experimental: Methods: Fresh ex vivo pig bladders were cut into 2 cm diameter pieces and laid on franz diffusions cells. […] 100 mg of paste was applied to either the perivascular or urothelial side of the bladder tissue and 200 ul of tyrodes buffer pH 7.4 was added. The tissue was incubated for 2 hours at 37° C. and then the diffusion cell was disassembled, the tissue was washed free of remaining paste with excess tyrodes and the tissues were then frozen and cryosectioned for radioactivity counting by liquid scintillation methods.

[4] = test system: pig bladder tissue; experiment: Uptake of paclitaxel or docetaxel into pig bladder tissue from triblock or diblock copolymer-MEPEG pastes; assay type: in vitro ADME; settings: EGCG or tannic acid loaded triblock copolymer paste, perivesicular side, 2 hours
Text: Methods: Fresh ex vivo pigs bladders were cut into 2 cm diameter pieces and laid on franz diffusions cells. […] The synthesis of the diblock copolymer is described in example X and is composed of a MEPEG molecule of 2000 molecular weight with polylactic acid at a molecular weight of 1330. The triblock copolymer was synthesized in house and has a composition of 35/35/30 (polycaprolactone, polylactic acid, polyethylene glycol with a total molecular weight of 4600. The triblock was synthesized by heating a mixture of caprolactone (Sigma chemicals) lactic acid (Polysciences) and Polyethylene glycol (Sigma molecular weight 1380) to 120° C. under nitrogen overnight followed by cooling and washing in hexane or cold ethanol. 100 mg of paste was applied to the perivascular side of the bladder tissue and 200 ul of tyrodes buffer pH 7.4 was added. The tissue was incubated for 2 hours at 37° C. and then the diffusion cell was disassembled, the tissue was washed free of remaining paste with excess tyrodes and the tissues were then frozen and cryosectioned for radioactivity counting by liquid scintillation methods.

[5] = test system: pig skin
Experimental: Various gallate-containing drug formulations were prepared and applied to ex vivo pig skin samples. Fresh pig skin was obtained from a local butcher, processed within three hours and then frozen. For experiments, the skin was slowly thawed, excess fat removed from the base, and cut into 1×2 cm squares. These squares were mounted and clamped on Franz diffusion cells, which kept the tissue moist and isolated and exposed a 6 mm diameter of the upper skin surface for the application of a drug loaded formulation. Skin samples were then frozen and later cryosectioned in 50 μm slices. The drug in the slices was extracted and measured by HPLC or radioactive doping methods. A drug depth profile was then established for each drug.
1. Formulations containing a drug and a gallate. The drugs were dissolved in ethanol at various concentrations along with either EGCG or TA (500 mg/mL). Each solution was pipetted into 6×5 mm diameter aluminum cups (approximately 3 mm in height) by filling and allowing the ethanol to evaporate at 50° C. until all the solution was used up (80 mg per cup).
2. Formulations containing a drug, propylene glycol (“PG”) and a gallate. 300 mg of propylene glycol was mixed with 200 mg of EGCG or TA until dissolved. Various amounts of drug were added to this mixture and dissolved. 80 mg of the resulting viscous solution was weighed into 6×5 mm aluminum cups.
3. Control Formulations. Control formulations were prepared using Glaxal base and Plogel. Glaxal base is a cream used by compounding pharmacists to manufacture topical formulations of drugs. Plogel is an alternative used for dermal formulations. […] Drug was added to a known weight of Glaxal or Plogel and levigated to produce a standard drug dispersion. These formulations were prepared the evening before the experiment. For some drugs, radioactive drug (where available) was also added as a doping additive to facilitate quantitation in tissues.
Eutectics: In some cases, gallate containing compounds and drugs were formulated in eutectic mixtures. These included a 60:40 (% w/w) mixture of menthol with ibuprofen. These agents acted as a carrier for retinoic acid, which was then dissolved in this liquid. The 3-drug eutectic/solution was then blended into the CMC/poloxamer emulsion containing EGCG (2.5%). […] The emulsion was stabilized with poloxamer.
Example 29. Pig skin studies. Aluminum cups containing drug formulations were inverted on top of the pig skin in the Franz diffusion cell so that the formulation contents were in contact with the skin. […]
Analysis. […] The amount of drug in each group of skin sections was then determined using HPLC methods, or by radioactivity counting on a liquid scintillation counter. The amount of drug in each group of skin sections was expressed as μg/g or mg/g of tissue.

[6] = Drug release from injectable PG:gallate pastes (60:40) into PBS; assay type: physicochemical; settings: 60:40 PG:EGCG or PG:tannic acid, 2% w/w drug, PBS pH 7.4, 37° C.
Experimental: Methods: 60:40% w/w PG:EGCG or PG:tannic acid was used in these studies. 588 mg of propylene glycol was weighed into a 20 mL glass vials and 392 of EGCG or tannic acid was added followed by vortexing to distribute and dissolve the gallates. The vials were warmed to 60° C. and vortexed until all the contents were in solution. At this time 20 mg of drug was added (2% w/w) and vortexed until in solution. The following drugs were used: paclitaxel, docetaxel, retinoic acid, amphotericin B, and curcumin. 100 mg of each paste was weighed into the base of a 15 mL glass test tube and 10 mL of phosphate buffered saline was added at pH 7.4 and the tubes were incubated at 37° C. for certain times. All 10 mL of the PBS release media was removed and 1 mL analyzed by HPLC for drug content. 10 mL of fresh PBS was then added to all tubes

[7] = 24 h
Experimental: PBS (EGCG) or water (tannic acid) was added and the final solution filtered through a 0.22 micron filter to remove any particulates. The solutions were analyzed for drug concentration using HPLC.
PBS (EGCG) or water (tannic acid) was added and the final solution filtered through a 0.22 micron filter to remove particulates. The solution was then analyzed for drug concentration using absorbance spectroscopy at 450 nm.
PBS (EGCG) or water (tannic acid) was added and the final solution was filtered through a 0.22 micron filter to remove any particulates and the solution was analyzed for drug concentration using HPLC.
PBS (EGCG) or water (tannic acid) was added and the final solution filtered through a 0.22 micron filter to remove any particulates and the solution was analyzed for drug concentration using HPLC.
PBS (EGCG) or water (Tannic acid) was added and the final solution was filtered through a 0.22 um filter to remove any particulates and the solution was analyzed for drug concentration using HPLC.
Method: drug and EGCG or tannic acid were dried down from acetonitrile (or methanol for tannic acid) solutions at various drug to EGCG or tannic acid ratios. PBS (EGCG) or water (Tannic acid pH adjusted to 7) was added and the final solution was filtered through a 0.22 um filter to remove any particulates and the solution was analyzed for drug concentration using HPLC methods.

## CC(=O)O[C@H]1C(=O)[C@@]2(C)[C@H]([C@H](OC(=O)c3ccccc3)[C@]3(O)C[C@H](OC(=O)[C@H](O)[C@@H](NC(=O)c4ccccc4)c4ccccc4)C(C)=C1C3(C)C)[C@]1(OC(C)=O)CO[C@@H]1C[C@@H]2O [paclitaxel]
[1]; co-incubated with EGCG at 50 microg/ml
  paclitaxel level in cells: ≤ 2000 pg/mg
[1]; paclitaxel alone
  paclitaxel level in cells: < 200 pg/mg cellular protein
[1]; with EGCG versus alone
  increase in drug uptake with EGCG: 10 fold
[2]
  drug penetration through bladder tissue: high levels of drug penetration
[3]
  penetration of paclitaxel into the bladder tissue: allowed for the penetration
[4]
  penetration into the bladder tissue: allowed for the penetration
[5]
  drug uptake by pig skin: low levels of drug uptake
[6]
  drug release from PG:gallate paste: relatively controlled release of the drug over 24 hours
[7]
  stability of EGCG solutions of the drug: not stable over 24 hours
  stability of tannic acid solutions of the drug: stable for 24 hours

## CC(=O)O[C@@]12CO[C@@H]1C[C@H](O)[C@@]1(C)C(=O)[C@H](O)C3=C(C)[C@@H](OC(=O)[C@H](O)[C@@H](NC(=O)OC(C)(C)C)c4ccccc4)C[C@@](O)([C@@H](OC(=O)c4ccccc4)[C@H]21)C3(C)C [docetaxel]
[2]
  drug penetration through bladder tissue: high levels of drug penetration
[4]
  penetration into the bladder tissue: allowed for the penetration
[5]
  drug uptake by pig skin relative to controls: higher levels of uptake as compared to the control formulations
[6]
  drug release from PG:gallate paste: relatively controlled release of the drug over 24 hours
